Experimental data as given in publication PMC9775191, “A Subset Screen of the Compounds Australia Scaffold Library Identifies 7-Acylaminodibenzoxazepinones as Potent and Selective Hits for Anti-Giardia Drug Discovery” (Biomedicines, 2022).
Like-named read-outs stand apart in the source and are kept apart here.

Key:
[1] = tested on: Giardia infections; conditions: cited from earlier work; for clinical failure rates: 5-nitroimidazoles
[2] = tested on: methicillin resistant Staphylococcus aureus (ATCC 43300); experiment: Anti-bacterial activity assay; format: cell-based; conditions: for inhibition at 50 µM: Staphylococcus aureus, ATCC43300, 50 µM, read-out: Bacterial Inhibition S. aureus
Experimental: (§1) The activity of compounds against methicillin resistant Staphylococcus aureus (ATCC 43300), Escherichia coli (ATCC 25922), Acinetobacter baumannii (ATCC 19606) and Klebsiella pneumoniae (ATCC 700603) was assessed at 50 µM in duplicate as previously described. In brief, mid-log phase bacteria cultures were added to 384-well microtiter plate wells containing compound to final cell density of 5 × 10^5 CFU/mL in 50 µL. Plates were then covered and incubated at 37 °C for 18 h without shaking. Inhibition of bacterial growth was determined by measuring absorbance at 600 nm (Tecan M1000 Pro monochromator plate reader) and calculating percentage growth inhibition relative to the negative media and bacteria without inhibitors. Vancomycin hydrochloride (Sigma-Aldrich an affiliate of Merck KGaA, Darmstadt, Germany, #861987) and colistin sulfate (Sigma-Aldrich an affiliate of Merck KGaA, Darmstadt, Germany, C4461) were on each plate as positive controls for Gram-positive (S. aureus) and Gram-negative (E. coli, A. baumannii and K. pneumoniae) bacteria, respectively.

[3] = tested on: Escherichia coli (ATCC 25922); experiment: Anti-bacterial activity assay; format: cell-based; conditions: for inhibition at 50 µM: Escherichia coli, ATCC25922, 50 µM, read-out: Bacterial Inhibition E. coli
Experimental: as §1

[4] = tested on: Acinetobacter baumannii (ATCC 19606); experiment: Anti-bacterial activity assay; format: cell-based; conditions: ATCC19606, 50 µM
Experimental: as §1

[5] = tested on: Klebsiella pneumoniae (ATCC 700603); experiment: Anti-bacterial activity assay; format: cell-based; conditions: ATCC700603, 50 µM, read-out: Bacterial Inhibition K. pneumoniae
Experimental: as §1

[6] = tested on: G. duodenalis BRIS/91/HEPU/1279; experiment: Primary Giardia screen at 10 µM (live-cell imaging, automated counting); format: cell-based, Giardia duodenalis; conditions: for inhibition at 10 µM: Giardia duodenalis
Procedure, shortened: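 Compounds were tested once each at 10 μM final (0.2% DMSO) in culture medium under 3% O2, 5% CO2 in N2. Growth was read at 24 and 48 h by live-cell imaging with automated counting, and inhibition expressed as percent growth versus 0.2% DMSO vehicle after media-only background subtraction.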

[7] = tested on: Neonatal foreskin fibroblast (NFF) cells; experiment: Mammalian cell cytotoxicity assay (sulforhodamine B); format: cell-based, human; conditions: for inhibition at 20 µM / IC50: Homo sapiens, NFF; for inhibition at 20 µM: ±SD; for SI (48h Gd): Table S2, NFF vs 48 h Giardia IC50; for IC50: mean ± SD, read-out: IC50 NFF
Procedure, shortened: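 Dose–response from a top concentration of 100 µM was run on NFF cells, with sulforhodamine B as the viability read-out. Plates included media, no-compound, DMSO and chloroquine controls. Fibroblast IC50 was divided by the G. duodenalis BRIS/91/HEPU/1279 IC50 to give the selectivity index.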

[8] = tested on: G. duodenalis BRIS/91/HEPU/1279; experiment: Giardia dose response assay, assemblage B; format: cell-based, Giardia duodenalis; conditions: for IC50: Giardia duodenalis
Procedure, shortened: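 Assemblage B trophozoites (BRIS/91/HEPU/1279, 1.5 × 10^4 parasites/well) faced 8–12-point doubling dilutions in duplicate, incubated 48 h at 37 °C under 3% O2, 5% CO2 in N2. Parasites were imaged and counted at 24 and 48 h. Growth inhibition was taken versus vehicle controls minus background, with IC50 by log-linear interpolation.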

[9] = 24 h, first singlicate assay, read-out: % Inhibition n=1 24h
[10] = 24 h, re-assessment, read-out: % Inhibition n=2 24h
[11] = 24 h, read-out: Average % Inhibition 24h
[12] = 48 h, first singlicate assay, read-out: % Inhibition n=1 48h
[13] = 48 h, re-assessment, read-out: % Inhibition n=2 48h
[14] = 48 h, read-out: Average % Inhibition 48h
[15] = 24 h, read-out: G. duodenalis IC50 24h, Table S2, 24 h, ±SD, max 10 µM
[16] = 48 h, Table S2, 48 h, ±SD, max 10 µM, read-out: G. duodenalis IC50 48h

For `CCS(=O)(=O)CCn1c([N+](=O)[O-])cnc1C` [tinidazole], the clinical failure rates [1] is given as 40–70%.

With `COc1c(C)cnc(Cn2cnc([N+](=O)[O-])c2)c1C` [SN00782023, COc1c(C)cnc(Cn2cnc(c2)N(=O)=O)c1C] the inhibition at 50 µM [2] was 10%, the inhibition at 50 µM [3] was 5.99% and the inhibition at 50 µM [4] was 9.49%. It also gave an inhibition at 50 µM [5] of 8.15%, an inhibition at 10 µM [6, 9] of 40.2% and an inhibition at 10 µM [6, 10] of 11.3%. It also gave an inhibition at 10 µM [6, 11] of 25.8%, an inhibition at 10 µM [6, 12] of 83.4% and an inhibition at 10 µM [6, 13] of 82.5%. The inhibition at 10 µM [6, 14] was 82.9%, the inhibition at 20 µM [7] was -6.3 ± 3.6% and the “SI (48h Gd)” value [7] was greater than 3. For the same compound, the IC50 [8, 15] was 6.8 µM and the IC50 [8, 16] was 6.51 µM.

Work on `CCOc1ccc(CCNC(=O)c2ccc3c(c2)nc2n3CCOC2)cc1OCC` [SN00792841, CCOc1cc(CCNC(=O)c2ccc3c(c2)nc2COCCn32)ccc1OCC] yielded an inhibition at 50 µM [2] of -0.24%, an inhibition at 50 µM [3] of -0.09% and an inhibition at 50 µM [4] of 2.57%. For the same compound, the inhibition at 50 µM [5] was 7.3%, the inhibition at 10 µM [6, 9] was 41.7% and the inhibition at 10 µM [6, 10] was 12.7%. It also gave an inhibition at 10 µM [6, 11] of 27.2%, an inhibition at 10 µM [6, 12] of 88.5% and an inhibition at 10 µM [6, 13] of 71.1%. For the same compound, the inhibition at 10 µM [6, 14] was 79.8%, the inhibition at 20 µM [7] was -24.8 ± 15.3% and the “SI (48h Gd)” value [7] was greater than 4. It also gave an IC50 [8, 15] greater than 10 µM and an IC50 [8, 16] of 4.75 ± 4.02 µM.

In the case of `Cc1ncc([N+](=O)[O-])n1CCO` [Metronidazole, reference compound], the clinical failure rates [1] is given as 40–70% and the IC50 [7] is given as greater than 75 µM.

`COc1ccc(NC(=O)c2ccc(-c3cc(NC4CCCCC4)ncn3)cc2)cc1` [SN00794765, COc1ccc(cc1)NC(=O)c1ccc(cc1)c1ncnc(NC2CCCCC2)c1] gave an inhibition at 50 µM [2] of 2.05%, an inhibition at 50 µM [3] of 3.31% and an inhibition at 50 µM [4] of -0.4%. It also gave an inhibition at 50 µM [5] of 1.61%, an inhibition at 10 µM [6, 9] of 29.5% and an inhibition at 10 µM [6, 10] of 4.7%. For the same compound, the inhibition at 10 µM [6, 11] was 17.1%, the inhibition at 10 µM [6, 12] was 63.5% and the inhibition at 10 µM [6, 13] was 38.6%. It also gave an inhibition at 10 µM [6, 14] of 51%, an inhibition at 20 µM [7] of 23.1 ± 8.6% and an IC50 [8, 15] greater than 10 µM. The IC50 [8, 16] was greater than 10 µM.

`Cn1nccc1-c1cccc(-c2noc(-c3cccc(F)c3)n2)c1` [SN00798315, Fc1cccc(c1)c1onc(n1)c1cccc(c1)c1ccnn1C] showed an inhibition at 50 µM [2] of 1.07%, an inhibition at 50 µM [3] of 2.55% and an inhibition at 50 µM [4] of 1.7%. It also gave an inhibition at 50 µM [5] of 9.56%, an inhibition at 10 µM [6, 9] of 24.1% and an inhibition at 10 µM [6, 10] of 11.1%. For the same compound, the inhibition at 10 µM [6, 11] was 17.6%, the inhibition at 10 µM [6, 12] was 66.9% and the inhibition at 10 µM [6, 13] was 61.2%. For the same compound, the inhibition at 10 µM [6, 14] was 64%, the inhibition at 20 µM [7] was -9 ± 1.9% and the “SI (48h Gd)” value [7] was greater than 4. It also gave an IC50 [8, 15] greater than 10 µM and an IC50 [8, 16] of 4.74 ± 6.4 µM.

For `CCCSc1ccc2nc(NC(=O)OC)[nH]c2c1` [Albendazole], the treatment efficacy rates [1] is given as 25–90%.

Compound `CC(C)c1ccc(Nc2ncccc2S(=O)(=O)N2CCCC2)cc1` [SN00799289, CC(C)c1ccc(cc1)Nc1ncccc1S(=O)(=O)N1CCCC1] has an inhibition at 50 µM [2] of 3.06%, an inhibition at 50 µM [3] of 1.89% and an inhibition at 50 µM [4] of 4.74%. It also gave an inhibition at 50 µM [5] of 14.4%, an inhibition at 10 µM [6, 9] of 43.9% and an inhibition at 10 µM [6, 10] of 10.1%. It also gave an inhibition at 10 µM [6, 11] of 27%, an inhibition at 10 µM [6, 12] of 73.3% and an inhibition at 10 µM [6, 13] of 41.7%. For the same compound, the inhibition at 10 µM [6, 14] was 57.5%, the inhibition at 20 µM [7] was 11.4 ± 13.4% and the “SI (48h Gd)” value [7] was greater than 5. For the same compound, the IC50 [8, 15] was greater than 10 µM and the IC50 [8, 16] was 3.36 ± 1.52 µM.

With `Cc1ncc([N+](=O)[O-])n1Cc1csc(Cc2ccccc2)n1` [SN00780011, O=N(=O)c1cnc(C)n1Cc1csc(Cc2ccccc2)n1] the inhibition at 50 µM [2] was 11.7%, the inhibition at 50 µM [3] was 8.95% and the inhibition at 50 µM [4] was 10.5%. The inhibition at 50 µM [5] was 16.4%, the inhibition at 10 µM [6, 9] was 33.3% and the inhibition at 10 µM [6, 10] was 27%. It also gave an inhibition at 10 µM [6, 11] of 30.1%, an inhibition at 10 µM [6, 12] of 54.9% and an inhibition at 10 µM [6, 13] of 79.2%. The inhibition at 10 µM [6, 14] was 67.1%, the inhibition at 20 µM [7] was 9.2 ± 12.4% and the “SI (48h Gd)” value [7] was greater than 3. It also gave an IC50 [8, 15] greater than 10 µM and an IC50 [8, 16] of 5.48 µM.

In the case of `Cc1cc(-c2cc(C(=O)Nc3ccc(N4CCN(C)CC4)nc3)c3cnn(C(C)C)c3n2)c(C)o1` [SN00776497], the “Bacterial Inhibition S. aureus” value ([2]; 50 µM) is reported as 56%, the inhibition at 50 µM [2] is reported as 55.8% and the “selectivity index over bacteria” value ([3]; E. coli, A. baumannii and K. pneumoniae / bacteria, Table S2) is reported as greater than 600. The inhibition at 50 µM [3] was 5.45%, the inhibition at 50 µM [4] was 19.6% and the inhibition at 50 µM [5] was 8.25%. For the same compound, the “Average % Inhibition 48h” value ([6]; 48 h) was greater than 90%, the inhibition at 10 µM [6, 9] was 94.6% and the inhibition at 10 µM [6, 10] was 97.2%. The inhibition at 10 µM [6, 11] was 95.9%, the inhibition at 10 µM [6, 12] was 98% and the inhibition at 10 µM [6, 13] was 98.5%. For the same compound, the inhibition at 10 µM [6, 14] was 98.2%, the IC50 [7] was 8.1 µM and the Selectivity ([7]; NFF IC50 divided by G. duodenalis BRIS/91/HEPU/1279 IC50) was 101. The “SI (48h Gd)” value [7] was 101, the “fold more potent than metronidazole” value ([8]; 48 h IC50) was greater than 30 fold and the IC50 [8, 15] was 0.25 ± 0.27 µM. The IC50 ([8]; 48 h, BRIS/91/HEPU/1279, 48 h, mean ± SD, read-out: IC50 Giardia (48 h)) was 0.08 µM.

`O=C(Cc1csc2nc(-c3ccccc3)cn12)Nc1ccc(Cl)cc1` [SN00796218, Clc1ccc(cc1)NC(=O)Cc1csc2nc(cn12)c1ccccc1] showed an inhibition at 50 µM [2] of -2.23%, an inhibition at 50 µM [3] of 3.03% and an inhibition at 50 µM [4] of 4.35%. For the same compound, the inhibition at 50 µM [5] was 3.63%, the inhibition at 10 µM [6, 9] was 47.2% and the inhibition at 10 µM [6, 10] was 48%. The inhibition at 10 µM [6, 11] was 47.6%, the inhibition at 10 µM [6, 12] was 59.9% and the inhibition at 10 µM [6, 13] was 75.5%. The inhibition at 10 µM [6, 14] was 67.7%, the inhibition at 20 µM [7] was 29.7 ± 10.3% and the IC50 [8, 15] was greater than 10 µM. For the same compound, the IC50 [8, 16] was greater than 10 µM.

In the case of `O=C(Nc1nc(-c2ccco2)c(-c2ccco2)s1)c1ccccc1` [SN00769776, O=C(Nc1sc(c2ccco2)c(n1)c1ccco1)c1ccccc1], the inhibition at 50 µM [2] is reported as 6.45%, the inhibition at 50 µM [3] is reported as 8.92% and the inhibition at 50 µM [4] is reported as 23.4%. It also gave an inhibition at 50 µM [5] of 32.1%, an inhibition at 10 µM [6, 9] of 35.4% and an inhibition at 10 µM [6, 10] of 19%. The inhibition at 10 µM [6, 11] was 27.2%, the inhibition at 10 µM [6, 12] was 77.6% and the inhibition at 10 µM [6, 13] was 64.8%. For the same compound, the inhibition at 10 µM [6, 14] was 71.2%, the inhibition at 20 µM [7] was 24.8 ± 11.7% and the IC50 [8, 15] was greater than 10 µM. It also gave an IC50 [8, 16] greater than 10 µM.
